Consider eleven compounds from patent publication US7794835B2, “Fixing solution, capsule structure, fixing method, fixing device and image forming apparatus” (Ricoh Company, Ltd., priority 2004, dated 2010).

Test in one series: not given
Conditions: acute oral toxicity; cited from earlier work.
Usually LD50 stands for the dose at which mortality reaches 50%. `CCCCCCCCCCCCCCCC(=O)OCC(C)C` [isobutyl palmitate, reference compound]: the LD50 is 8000 mg/kg.

`CCOCCOC(=O)CCC(=O)OCCOCC` [diethoxy ethyl succinate]: the LD50 was 5000 mg/kg. For the compound `CCCCCCCC(=O)OC` [methylcaprylate, reference compound], the LD50 was 3000 mg/kg. With `CCCCCCCCCCCCCCCC(=O)OC(C)C` [isopropyl palmitate, reference compound], the LD50 was 8000 mg/kg. In the case of `CCCCCCCCCCCC` [n-dodecane], the LD50 was 20000 mg/kg.

As to `[Cl-].[Na+]` [salt, reference compound], the LD50 is 3000 mg/kg. With `CCCCCC` [n-hexane], the LD50 is 28700 mg/kg. In the case of `CCO` [ethanol], the LD50 was 20000 mg/kg. In the case of `CCCCCCCCCCCCCC(=O)OC(C)C` [isopropylmyristate], the LD50 was 8000 mg/kg.

`CCCCCCCCCCCC(=O)OCCCCCC` [hexyl laureate]: the LD50 is 8000 mg/kg.

Still in this series, the particulars now being: acute oral toxicity; listed as dimethyl silicone oil; cited from earlier work.
On to dimethylsiloxane, for which the LD50 entry was “not less than 15 g/kg”.

The nature of another series: acute oral toxicity test LD50 (50 percent lethal dose). The format is in vivo, rats or guinea pigs. Conditions: worked out from LD50 in oral administration. The source says: A fixing solution according to the present invention includes aliphatic ester, held in a soluble state with respect to a solvent and having solubility or a swelling property with respect to a resin included in a toner. Thereby, a fixing solution, from which generation of odor is reduced, and by which a not-yet-fixed toner can be rapidly fixed, can be obtained. The aliphatic ester is applied as a softener softening a toner by dissolving or swelling the resin included in the toner. ‘Held in a soluble state’ means as being held in a size on the order of a molecule size on the order of […]. The aliphatic ester preferably has acute oral toxicity test LD50 larger than 3 g/kg in a viewpoint of a safety of humans.
For the first problem, LD50 is applied as a safety index, and a fixing solution was produced in such a manner that each of a solvent and a solute has LD50 not less than 3.0 g/kg. LD50 is a toxicity index of American Industrial Hygiene Association, and means a 50 percent lethal dose. This corresponds to an amount such that, 50% of the number of individuals are dead when a certain amount of test solute or a sample to test is given to rats or guinea pigs. […] Since this means that a 50% lethal dose for a weight of individuals of 1 kg is not less than 15 g, a presumable lethal dose of silicone oil for a human of 65 kg is not less than […] accordingly. […]
For dimethylsiloxane, the “presumable lethal dose for a human of 65 kg” value is given as “not less than 945 g”.
